Measurements as given in article PMC6520686, “Activation Studies of the γ-Carbonic Anhydrases from the Antarctic Marine Bacteria Pseudoalteromonas haloplanktis and Colwellia psychrerythraea with Amino Acids and Amines” (Marine Drugs, 2019).

Tests used:
[1] = test system: T1, PhaCA; assay: stopped-flow CO2 hydration assay; assay type: biochemical, Pseudoalteromonas haloplanktis; conditions: activation constant (activator); CO2 substrate; TRIS pH 8.3, 0.1 M NaClO4, 25 °C; 15 min pre-incubation
T1 construct: purified recombinant gamma-class enzyme
Excerpt: stopped-flow CO2 hydration assay on PhaCA

[2] = test system: T2, CpsCA; assay: stopped-flow CO2 hydration assay; assay type: biochemical, Colwellia psychrerythraea; conditions: activation constant (activator); CO2 substrate; TRIS pH 8.3, 0.1 M NaClO4, 25 °C; 15 min pre-incubation
T2 construct: purified recombinant gamma-class enzyme
Excerpt: stopped-flow CO2 hydration assay on CpsCA

| Structure (SMILES) | KA (μM) * / PhaCA ^b [1] [µM] | KA (μM) * / CpsCA ^b [2] [µM] |
| --- | --- | --- |
| NCCc1c[nH]cn1 [compound 12, Histamine] | 6.48 | 20.6 |
| N[C@H](Cc1ccccc1)C(=O)O [compound 4, D-Phe] | 3.19 | 15.4 |
| N[C@@H](Cc1ccc(O)c(O)c1)C(=O)O [compound 5, L-DOPA] | 1.08 | 4.79 |
| N[C@@H](Cc1ccc(O)cc1)C(=O)O [compound 9, L-Tyr] | 1.02 | 19.5 |
| N[C@H](Cc1ccc(O)c(O)c1)C(=O)O [compound 6, D-DOPA] | 0.72 | 11.2 |
| NCc1ccccn1 [compound 15, 2-Pyridyl-methylamine] | 2.39 | 21.5 |
| N[C@@H](Cc1c[nH]c2ccccc12)C(=O)O [compound 7, L-Trp] | 7.12 | 21.3 |
| N[C@H](CCC(=O)O)C(=O)O [compound 23, D-Glu] | – | 12.0 |
| NCCc1ccc(O)c(O)c1 [compound 13, Dopamine] | 8.70 | – |
| N[C@H](Cc1ccc(O)cc1)C(=O)O [compound 10, D-Tyr] | 7.35 | 18.4 |
| Nc1ccc(C[C@H](N)C(=O)O)cc1 [compound 11, 4-H2N-L-Phe] | 3.27 | 17.2 |
